Earlier results on one compound are cited in patent US8470863B2, “Derivatives and analogs of chroman as functionally selective ALPHA2C adrenoreceptor agonists” (Merck Sharp & Dohme, Corp., priority 2007, dated 2013).

For this data set, the system named is Coloboma mice. To be noted: mice mutated to exhibit spontaneous hyperactivity; Bruno et al. 2006.

In the case of `COC(=O)[C@@H]1[C@H]2C[C@H]3c4[nH]c5ccccc5c4CCN3C[C@@H]2CC[C@@H]1O` [yohimbine], the “Effect on hyperactivity of Coloboma mice” value is recorded as “ameliorated hyperactivity”.
